For one data set, the target named is ABCC1 (Homo sapiens, UniProt P33527). The data set can be described thus: daunorubicin assay, ABCC1-expressing H69AR cells. Particulars: for inhibition at 10 µM: H69AR, read-out: inhibition of ABCC1 in screening; for IC50: read-out: ABCC1 daunorubicin IC50 ± SEM, H69AR cells, 22, 23 constrained to reference inhibitor 35; for ABCC1 inhibition: screening at 10 μM, inhibitor if 20% (+SEM) reached.

The target of the next data set is T1, ABCG2 (Homo sapiens, UniProt Q9UNQ0).
T1 sequence (Q9UNQ0 1-655): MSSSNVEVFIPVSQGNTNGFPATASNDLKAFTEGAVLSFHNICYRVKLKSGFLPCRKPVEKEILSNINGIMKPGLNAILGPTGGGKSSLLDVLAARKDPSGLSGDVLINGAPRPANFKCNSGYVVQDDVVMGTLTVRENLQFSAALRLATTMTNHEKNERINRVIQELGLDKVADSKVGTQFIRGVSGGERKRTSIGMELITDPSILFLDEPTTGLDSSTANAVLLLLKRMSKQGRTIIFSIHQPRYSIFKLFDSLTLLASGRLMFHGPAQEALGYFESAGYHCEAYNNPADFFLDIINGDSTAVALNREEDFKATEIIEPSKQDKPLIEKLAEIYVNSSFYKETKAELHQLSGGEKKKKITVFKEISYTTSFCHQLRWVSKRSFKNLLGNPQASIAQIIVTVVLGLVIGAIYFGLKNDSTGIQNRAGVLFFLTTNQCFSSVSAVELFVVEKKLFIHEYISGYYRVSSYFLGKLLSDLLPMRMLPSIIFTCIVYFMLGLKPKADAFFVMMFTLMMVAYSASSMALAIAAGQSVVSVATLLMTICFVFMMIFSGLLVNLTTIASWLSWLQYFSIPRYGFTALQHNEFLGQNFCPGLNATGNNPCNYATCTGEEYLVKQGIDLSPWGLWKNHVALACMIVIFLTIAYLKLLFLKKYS
The data set can be described thus: pheophorbide A assay, ABCG2-expressing MDCK II BCRP cells. Particulars: for ABCG2 inhibition: screening at 10 μM, inhibitor if 20% (+SEM) reached.

The target of the next data set is T2, ABCG2 (BCRP) (Homo sapiens, UniProt Q9UNQ0).
T2 sequence (Q9UNQ0 1-655): T1 sequence (Q9UNQ0 1-655)
Described as above. To be noted: human, ABCG2-expressing MDCK II BCRP cells, probe pheophorbide A (0.5 μM final).

The target of data set [1] is T3, ABCB1 (Homo sapiens, UniProt P08183). The data set can be described thus: calcein AM assay, ABCB1-expressing A2780/ADR cells. To be noted: for IC50: read-out: ABCB1 calcein AM IC50 ± SEM, A2780/ADR cells, 22, 23 constrained to reference inhibitor 34; for ABCB1 inhibition: screening at 10 μM, inhibitor if 20% (+SEM) reached.
Source text: (§5) To provide a detailed picture of the pharmacological profile of the indole derivatives, we investigated their modulatory nature on the most prominent ABC transporters ABCB1 (P-glycoprotein, P-gp), ABCC1, (multidrug resistance-associated protein 1, MRP1), and ABCG2 (breast cancer resistance protein, BCRP). Here, we conducted calcein AM (ABCB1),[2],[52]−[59] daunorubicin (ABCC1),[52],[58]−[60] and pheophorbide A (ABCG2)[2],[52]−[60] assays using ABCB1-expressing A2780/ADR, ABCC1-expressing H69AR, and ABCG2-expressing MDCK II BCRP cells, respectively.
(§6) The calcein AM (ABCB1),[2],[52]−[59] daunorubicin (ABCB1[52],[60] and ABCC1[52],[58]−[60]), and pheophorbide A (ABCG2)[2],[52]−[60] assays were conducted as reported earlier. […] The data was processed using GraphPad Prism version 8.4.0, and IC50 values were determined, applying three- or four-parameter logistic equations, whatever was statistically preferred.
A further data set concerns A-549 cancer cells. The data set can be described thus: MTT-based cell viability assay, A-549. Particulars: Homo sapiens, A549, 72 h, read-out: A-549 cancer cell toxicity GI50 ± SEM. From the text:
(§1) MCT1-expressing cells have an extraordinary energy demand and rely on pyruvate metabolism, through either lactate conversion or pyruvate consumption. Inhibition of MCT1 blocks lactate and pyruvate influx into cancer cells, which prevents their processing in the TCA cycle. Over time, the viability of cells exposed to an MCT1 inhibitor is impaired due to pyruvate deprivation, which is compensated by upregulating glucose metabolism—leading to an overconsumption of glucose. To confirm the antiproliferative nature of the indole derivatives, we investigated the compounds toward the MCT1-expressing cell lines A-549[14],[15] and MCF-7.[16] Cancer cell viability was assessed via a 3-(4,5-dimethylthiazol-2-yl)-2,5-diphenyltetrazolium bromide (MTT) assay, as reported earlier.[43]
(§2) To determine the growth inhibitory potential of compounds 17–32, […] of each compound either at concentrations between 1 and 100 μM (A-549 or MCF-7) or at 10 and 50 μM (NIH/3T3) was pipetted into colorless flat-bottom 96-well microplates. Thereafter, 180 μL of a cell suspension (5000 cells/well) of either A-549, MCF-7, or NIH/3T3 cells was added and subsequently kept for 72 h at 37 °C under a 5% CO2-humidified atmosphere. The cell viability as well as the GI50 values were determined as described above.[43]

Data set [2] deals with T4, MCT1 (Homo sapiens, UniProt P53985).
T4 construct: MCT1-expressing A-549 cells[14],[15] were exposed to the MCT1 substrate 3-BP, which becomes influxed by MCT1; endogenous in cells; host or cells: A-549 lung cancer cells (from NCCS, Pune)
T4 sequence (P53985 1-500): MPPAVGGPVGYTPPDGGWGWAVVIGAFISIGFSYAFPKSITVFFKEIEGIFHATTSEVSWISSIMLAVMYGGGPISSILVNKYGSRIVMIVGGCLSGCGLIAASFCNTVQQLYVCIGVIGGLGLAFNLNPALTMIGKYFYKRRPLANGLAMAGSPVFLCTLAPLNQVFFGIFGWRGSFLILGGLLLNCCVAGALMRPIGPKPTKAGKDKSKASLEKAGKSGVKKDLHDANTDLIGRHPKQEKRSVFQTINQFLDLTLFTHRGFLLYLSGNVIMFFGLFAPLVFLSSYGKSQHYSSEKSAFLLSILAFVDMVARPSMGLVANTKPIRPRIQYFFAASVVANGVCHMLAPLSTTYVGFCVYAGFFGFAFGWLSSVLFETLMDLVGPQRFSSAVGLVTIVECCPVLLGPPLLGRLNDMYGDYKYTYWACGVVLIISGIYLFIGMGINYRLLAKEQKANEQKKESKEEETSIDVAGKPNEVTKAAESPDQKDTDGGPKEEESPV
T4 sequence (P35613 140-385 partner limits assumed): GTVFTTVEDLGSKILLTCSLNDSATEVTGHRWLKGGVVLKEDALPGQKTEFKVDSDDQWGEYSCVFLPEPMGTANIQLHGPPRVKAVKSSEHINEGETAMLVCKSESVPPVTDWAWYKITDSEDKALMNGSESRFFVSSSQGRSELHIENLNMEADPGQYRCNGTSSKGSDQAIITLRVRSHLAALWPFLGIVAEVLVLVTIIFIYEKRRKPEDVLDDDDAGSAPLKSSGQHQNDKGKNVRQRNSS
The data set can be described thus: functional 3-BP cell viability assay (MCT1 transport inhibition). To be noted: MCT1-expressing A-549 cells, 50 μM 3-BP, 72 h; read-out: MCT1 transport inhibition IC50 ± SEM. It is filed as cell-based. As for the experimental part: (§3) The inhibitory activity of indole derivatives against MCT1 was determined by applying a functional 3-bromopyruvate (3-BP) cell viability assay, as described in the literature[20],[39] with minor modifications. In short, MCT1-expressing A-549 cells[14],[15] were exposed to the MCT1 substrate 3-BP, which becomes influxed by MCT1. 3-BP is toxic, leading to decreased cell viability. Functional inhibition of MCT1 results in reduced intracellular 3-BP levels and, thus, enhanced cell viability compared to no inhibition. […] Table 1 provides the half-maximal inhibition concentration (IC50) values of compounds 17–32.
(§4) A functional 3-BP cytotoxicity assay was conducted as described in the literature[20],[39] with minor modifications. Dilution series of compounds 17–32 between 1 nM and 1 μM were prepared in DPBS (Cell Clone, Genetix Biotech Asia, New Delhi India), and 10 μL of each concentration was pipetted into a colorless flat-bottom 96-well microplate (SPL Life Sciences, Gyeonggi-do, Republic of Korea). One hundred and eighty microliters of a cell suspension (5000 cells/well) of A-549 cells was added, and subsequently, 10 μL of 3-BP was added at a concentration of 1 mM (final concentration per well: 50 μM). The plate was kept for 72 h at 37 °C under a 5% CO2-humidified atmosphere. Cell viability was determined as described before[43] by adding 20 μL of a 5 mg/mL solution of MTT to each well and further incubation for 1 h. Eventually, the supernatant was removed and 100 μL of DMSO was added to each well. The absorbance was spectrophotometrically determined at 570 nm using a SpectraMax iD3 multi-mode microplate reader (Molecular Devices, San Jose, CA) with a background correction (690 nm). The determined absorbance values were correlated to the logarithmic concentrations of compounds 17–32, and IC50 values were calculated applying nonlinear regression using GraphPad Prism (version 8.4.0., San Diego, CA).

For the next data set, the system named is MCF-7 cancer cells. The data set can be described thus: MTT-based cell viability assay, MCF-7. Particulars: Homo sapiens, MCF7, 72 h, read-out: MCF-7 cancer cell toxicity GI50 ± SEM.
Source text: as §1, §2

Data set [3] addresses T4, MCT1. To be noted: cited from earlier work.
A further data set has as its system A-549 cells. The data set can be described thus: 3-BP toxicity against A-549 cells (MTT). It is filed as cell-based. As for the experimental part: as §3, §4
For data set [4], the target named is ABCB1 (P-glycoprotein, P-gp) (Homo sapiens, UniProt P08183). The data set can be described thus: daunorubicin assay, ABCB1-expressing A2780/ADR cells. Format: cell-based. To be noted: human, ABCB1-expressing A2780/ADR cells, probe daunorubicin (3 μM final); relative to reference inhibitor 34 = 100%; read-out: maximal inhibition (Imax), ABCB1 daunorubicin.
Data set [5] deals with T3, ABCB1. The data set is described as above. Format: cell-based. To be noted: A2780/ADR cells; read-out: ABCB1 daunorubicin IC50 ± SEM.

T3 sequence (P08183 whole entry): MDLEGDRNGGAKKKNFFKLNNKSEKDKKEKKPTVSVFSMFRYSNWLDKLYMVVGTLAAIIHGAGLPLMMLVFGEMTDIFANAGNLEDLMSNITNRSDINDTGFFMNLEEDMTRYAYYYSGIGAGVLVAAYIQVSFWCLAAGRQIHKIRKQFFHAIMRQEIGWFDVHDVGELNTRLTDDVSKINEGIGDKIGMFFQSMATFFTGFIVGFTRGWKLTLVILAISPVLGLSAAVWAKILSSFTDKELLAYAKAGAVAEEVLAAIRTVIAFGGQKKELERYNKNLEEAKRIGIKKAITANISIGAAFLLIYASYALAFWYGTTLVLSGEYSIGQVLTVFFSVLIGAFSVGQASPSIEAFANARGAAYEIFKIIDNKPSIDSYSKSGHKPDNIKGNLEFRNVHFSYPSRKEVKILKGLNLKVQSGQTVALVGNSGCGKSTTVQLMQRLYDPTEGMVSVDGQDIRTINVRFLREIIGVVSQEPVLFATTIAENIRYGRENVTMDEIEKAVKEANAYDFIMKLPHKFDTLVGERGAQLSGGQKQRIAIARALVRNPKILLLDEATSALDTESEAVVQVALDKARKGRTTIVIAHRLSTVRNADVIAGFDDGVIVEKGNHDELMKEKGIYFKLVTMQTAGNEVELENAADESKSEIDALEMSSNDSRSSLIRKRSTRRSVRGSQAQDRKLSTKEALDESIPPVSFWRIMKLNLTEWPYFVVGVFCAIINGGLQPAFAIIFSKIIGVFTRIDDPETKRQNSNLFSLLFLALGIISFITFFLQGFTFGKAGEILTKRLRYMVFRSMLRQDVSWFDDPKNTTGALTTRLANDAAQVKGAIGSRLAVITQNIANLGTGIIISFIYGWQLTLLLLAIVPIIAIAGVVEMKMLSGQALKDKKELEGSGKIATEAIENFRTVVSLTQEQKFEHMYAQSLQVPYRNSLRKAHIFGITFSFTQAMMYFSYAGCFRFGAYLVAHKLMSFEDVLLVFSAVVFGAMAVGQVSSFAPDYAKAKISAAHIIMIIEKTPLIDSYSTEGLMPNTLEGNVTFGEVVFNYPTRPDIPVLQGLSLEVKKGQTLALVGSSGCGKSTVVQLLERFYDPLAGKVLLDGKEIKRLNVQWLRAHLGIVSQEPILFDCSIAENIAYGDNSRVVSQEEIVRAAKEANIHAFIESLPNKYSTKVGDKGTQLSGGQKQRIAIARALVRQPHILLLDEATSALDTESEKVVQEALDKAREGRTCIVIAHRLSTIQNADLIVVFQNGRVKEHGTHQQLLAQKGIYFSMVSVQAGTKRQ
Sequence of ABCC1 (P33527 whole entry): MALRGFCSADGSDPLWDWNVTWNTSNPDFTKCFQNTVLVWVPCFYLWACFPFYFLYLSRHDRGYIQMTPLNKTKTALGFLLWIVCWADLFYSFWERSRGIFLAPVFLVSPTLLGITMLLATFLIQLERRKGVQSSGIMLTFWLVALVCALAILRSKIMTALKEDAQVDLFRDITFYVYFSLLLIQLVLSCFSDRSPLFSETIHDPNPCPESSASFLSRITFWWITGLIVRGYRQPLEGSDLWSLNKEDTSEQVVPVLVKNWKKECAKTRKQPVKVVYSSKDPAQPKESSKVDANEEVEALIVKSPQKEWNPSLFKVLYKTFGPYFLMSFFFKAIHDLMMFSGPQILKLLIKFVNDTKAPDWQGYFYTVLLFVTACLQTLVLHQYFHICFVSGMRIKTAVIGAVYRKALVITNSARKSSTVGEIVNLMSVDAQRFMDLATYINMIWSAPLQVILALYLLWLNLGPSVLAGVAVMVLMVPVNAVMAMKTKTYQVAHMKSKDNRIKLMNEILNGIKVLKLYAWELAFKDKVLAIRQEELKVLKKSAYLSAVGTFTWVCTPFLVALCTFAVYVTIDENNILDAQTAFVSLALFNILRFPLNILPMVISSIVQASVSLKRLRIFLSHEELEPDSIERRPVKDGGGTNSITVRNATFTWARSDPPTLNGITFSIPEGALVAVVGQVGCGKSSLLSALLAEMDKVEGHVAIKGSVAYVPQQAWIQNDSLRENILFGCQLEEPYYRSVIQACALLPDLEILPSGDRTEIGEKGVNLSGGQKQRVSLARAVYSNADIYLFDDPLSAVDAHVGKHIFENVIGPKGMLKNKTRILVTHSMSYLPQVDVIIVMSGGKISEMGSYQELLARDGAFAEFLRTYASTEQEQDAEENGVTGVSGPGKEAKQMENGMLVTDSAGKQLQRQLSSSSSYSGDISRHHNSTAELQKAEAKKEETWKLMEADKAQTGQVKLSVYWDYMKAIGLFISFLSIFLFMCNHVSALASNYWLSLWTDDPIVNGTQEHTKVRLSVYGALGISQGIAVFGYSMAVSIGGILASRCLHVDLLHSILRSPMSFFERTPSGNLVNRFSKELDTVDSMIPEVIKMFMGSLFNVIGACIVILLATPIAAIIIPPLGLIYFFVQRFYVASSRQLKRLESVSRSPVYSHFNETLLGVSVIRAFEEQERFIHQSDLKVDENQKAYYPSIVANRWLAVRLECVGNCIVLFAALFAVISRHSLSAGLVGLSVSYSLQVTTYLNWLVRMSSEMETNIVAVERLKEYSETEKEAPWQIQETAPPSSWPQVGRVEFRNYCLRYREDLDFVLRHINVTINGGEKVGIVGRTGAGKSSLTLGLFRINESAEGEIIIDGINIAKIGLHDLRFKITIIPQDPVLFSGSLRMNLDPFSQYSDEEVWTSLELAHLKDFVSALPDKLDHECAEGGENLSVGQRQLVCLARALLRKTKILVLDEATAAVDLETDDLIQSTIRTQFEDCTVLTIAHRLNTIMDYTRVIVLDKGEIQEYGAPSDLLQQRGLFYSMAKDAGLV
Sequence of ABCB1 (P-glycoprotein, P-gp) (P08183 whole entry): as the sequence (P08183 whole entry) above
Source text for ABCC1: as §5, §6
Source text for ABCG2 (BCRP): as §5, §6

Usually inhibition stands for the percentage by which the read-out fell short of the control. For orientation: IC50 means the concentration that inhibits the measured activity by half. Usually GI50 stands for the concentration giving 50% growth inhibition. As for `COC(=O)/C(C#N)=C/c1cn(CC(=O)Nc2cccc(OC)c2)c2ccccc12` [Compound 23, Methyl-2-cyano-3-(1-(2-((3-methoxyphenyl)amino)-2-oxoethyl)-1H-indol-3-yl) Acrylate], the inhibition at 10 µM at ABCC1 is ≥ 20%. For the same compound, the 50% inhibitory concentration (IC50) is 19.1 ± 3.4 µM at ABCC1, 43.5 ± 7.5 µM at ABCG2, 5.32 ± 1.67 µM on ABCB1 [1] and 0.105 ± 0.009 µM at MCT1 [2]. Moreover, the ABCC1 inhibition entry at ABCC1 was “X (Compounds were considered as inhibitors if they reached 20% (+SEM) inhibition compared to the reference inhibitors 33–35; X = fulfilled)”. Besides, the ABCG2 inhibition result on ABCG2 was “X (Compounds were considered as inhibitors if they reached 20% (+SEM) inhibition compared to the reference inhibitors 33–35; X = fulfilled)”. Also, the inhibition at 120 min, 10 μM against ABCG2 (BCRP) was ≥ 20%. Also, at ABCB1 [1], the ABCB1 inhibition result is “X (Compounds were considered as inhibitors if they reached 20% (+SEM) inhibition compared to the reference inhibitors 33–35; X = fulfilled)”. The concentration for 50% growth inhibition (GI50) was found to be 25.5 ± 0.5 µM in the data set with A-549 cancer cells and 14.7 ± 0.2 µM with MCF-7 cancer cells.

Consider `N#C/C(=C\c1ccc(O)cc1)C(=O)O` [Compound 8, reference compound], for which, at MCT1 [3], the “inhibitory power (MCT1) in the literature” value was “submillimolar to low micromolar concentration ranges”. Further, the 50% growth inhibitory concentration (GI50) with A-549 cancer cells came out at 52.7 ± 0.2 µM; with MCF-7 cancer cells, 108 ± 3 µM. Moreover, the IC50 at MCT1 [2] came out at 0.0872 ± 0.0035 µM.

For the compound `O=C(O)C(=O)CBr` [3-BP, 3-bromopyruvate], in the data set with A-549 cells (A-549 cells), the “GI90 of 3-BP” value worked out at 49.8 ± 0.6 µM. In addition, the GI50 in the data set on A-549 cells (Homo sapiens, A549, read-out: half-maximal growth inhibition (GI50) of 3-BP, A-549 cells) amounted to 25 ± 0.4 µM. The inhibition at 50 µM in the data set on A-549 cells (Homo sapiens, A549, 50 μM 3-BP, read-out: inhibition of A-549 cell growth) is ≥ 90%.

With `COC(=O)/C(C#N)=C/c1cn(CC(=O)Nc2ccc(Br)cn2)c2ccccc12` [Compound 31, Methyl-3-(1-(2-((5-bromopyridin-2-yl)amino)-2-oxoethyl)-1H-indol-3-yl)-2-cyanoacrylate], the inhibition at 180 min in data set [4] is 39%. Moreover, the IC50 on ABCB1 [5] was 1.19 ± 0.12 µM; on ABCB1 [1], 1.4 ± 0.11 µM; on MCT1 [2], 0.214 ± 0.032 µM. Also, at ABCC1, the ABCC1 inhibition result was “X (Compounds were considered as inhibitors if they reached 20% (+SEM) inhibition compared to the reference inhibitors 33–35; X = fulfilled)”. Moreover, at ABCB1 [1], the ABCB1 inhibition result was “X (Compounds were considered as inhibitors if they reached 20% (+SEM) inhibition compared to the reference inhibitors 33–35; X = fulfilled)”. Moreover, the results for the 50% growth inhibitory concentration (GI50) with A-549 cancer cells and in the data set on MCF-7 cancer cells were 18.8 ± 0.2 µM and 3.13 ± 0.23 µM, respectively.

Turning to `COC(=O)/C(C#N)=C/c1cn(CC(=O)Nc2ccccc2OC)c2ccccc12` [Compound 22, Methyl-2-cyano-3-(1-(2-((2-methoxyphenyl)amino)-2-oxoethyl)-1H-indol-3-yl) Acrylate], at ABCC1, the inhibition at 10 µM was ≥ 20%, the half-maximal inhibitory concentration (IC50) is 17.3 ± 2.2 µM and the ABCC1 inhibition result is “X (Compounds were considered as inhibitors if they reached 20% (+SEM) inhibition compared to the reference inhibitors 33–35; X = fulfilled)”. Further, on ABCG2, the IC50 worked out at 99.5 ± 24.5 µM and the ABCG2 inhibition entry is on record as “X (Compounds were considered as inhibitors if they reached 20% (+SEM) inhibition compared to the reference inhibitors 33–35; X = fulfilled)”. Besides, the inhibition at 120 min, 10 μM against ABCG2 (BCRP) was ≥ 20%. Besides, at ABCB1 [1], the IC50 is 24.3 ± 6.4 µM and the ABCB1 inhibition result is “X (Compounds were considered as inhibitors if they reached 20% (+SEM) inhibition compared to the reference inhibitors 33–35; X = fulfilled)”. In the data set on A-549 cancer cells, the GI50 is 26 ± 0.3 µM. Moreover, the half-maximal inhibitory concentration (IC50) on MCT1 [2] turned out to be 0.135 ± 0.002 µM. In the data set with MCF-7 cancer cells, the GI50 was determined as 19.1 ± 0.5 µM.

These data come from PMC9841531, “Indole Derivatives as New Structural Class of Potent and Antiproliferative Inhibitors of Monocarboxylate Transporter 1 (MCT1; SLC16A1)” (Journal of Medicinal Chemistry, 2022).
